Assay results as given in US20070128217A1 (priority 2003, published 2007).

Key:
[1] = system: antibodies in sera from SARS patients (sera 1a, 1b, 2, 6, 37, 62, London, SARS-yellow, SARS-green); type: binding, human; set-up: Binding of serum 6 to linear peptides of protein X1 of SARS-CoV Urbani / Binding of serum 37 to linear peptides of protein X1 of SARS-CoV Urbani / Binding of serum 6 to looped/cyclic peptide (PEPSCAN-ELISA) / Binding of serum 37 to looped/cyclic peptide (PEPSCAN-ELISA) / Binding of serum 37 to looped/cyclic peptides of protein X1 of SARS-CoV Urbani / Binding of serum 6 to linear peptides of protein X2 / Binding of serum 37 to linear peptides of protein X2 / Binding of serum 37 to looped/cyclic peptides of protein X2 of SARS-CoV Urbani / Binding of serum 6 to linear peptides of protein M of SARS-CoV Urbani / Binding of serum 37 to linear peptides of protein M of SARS-CoV Urbani / Binding of serum 6 to looped/cyclic peptides of protein M of SARS-CoV Urbani / Binding of serum 37 to looped/cyclic peptides of protein M of SARS-CoV Urbani / Binding of serum 6 to linear peptides of protein X3 of SARS-CoV Urbani / Binding of serum 37 to linear peptides of protein X3 of SARS-CoV Urbani / Binding of serum 37 to looped/cyclic peptides of protein X3 of SARS-CoV Urbani / Binding of serum 6 to linear peptides of protein X4 of SARS-CoV Urbani / Binding of serum 37 to linear peptides of protein X4 of SARS-CoV Urbani / Binding of serum 37 to looped/cyclic peptides of protein X4 of SARS-CoV Urbani / Binding of serum 6 to linear peptides of protein X5 of SARS-CoV Urbani / Binding of serum 37 to linear peptides of protein X5 of SARS-CoV Urbani / Binding of serum 37 to looped/cyclic peptides of protein X5 of SARS-CoV Urbani / Binding of serum 6 to linear peptides of protein N of SARS-CoV Urbani / Binding of serum 37 to linear peptides of protein N of SARS-CoV Urbani / Binding of serum 6 to linear peptide (PEPSCAN-ELISA) / Binding of serum 1a to looped/cyclic peptides of protein N of SARS-CoV Urbani / Binding of serum 1b to looped/cyclic peptides of protein N of SARS-CoV Urbani / Binding of serum 2 to looped/cyclic peptides of protein N of SARS-CoV Urbani / Binding of serum 6 to looped/cyclic peptides of protein N of SARS-CoV Urbani / Binding of serum 37 to looped/cyclic peptides of protein N of SARS-CoV Urbani / Binding of serum 62 to looped/cyclic peptides of protein N of SARS-CoV Urbani / Binding of serum London to looped/cyclic peptides of protein N of SARS-CoV Urbani / Binding of serum SARS-green to looped/cyclic peptides of protein N of SARS-CoV Urbani: unit not given here
[2] = system: control sera (pooled serum of ten healthy LUMC hospital workers; commercial negative donor pooled serum from the Dutch bloodbank); type: binding, human; set-up: Binding of Control serum LUMC to linear peptides / Binding of Control serum Blood-bank to linear peptides / Binding of Control serum LUMC to looped peptides / Binding of Control Serum Blood-Bank to Looped peptides / Binding of Control serum LUMC to linear peptides of the protein M of SARS-CoV Urbani / Binding of Control serum Blood-bank to linear peptides of the protein M of SARS-CoV Urbani / Binding of Control serum LUMC to looped peptides of the protein M of SARS-CoV Urbani / Binding of Control Serum Blood-Bank to Looped peptides of the protein M of SARS-CoV Urbani: unit not given here
[3] = system: rabbit serum obtained by immunizing a rabbit with the SARS-CoV strain Frankfurt 1; type: binding; set-up: Binding of a rabbit serum to linear peptides / Binding of a rabbit serum to looped peptides / Rabbit serum linear peptides / Rabbit serum looped peptides / Binding of a rabbit serum to linear peptides of protein N of SARS-CoV Urbani (Rabbit serum linear peptides) / Binding of a rabbit serum to looped/cyclic peptides of protein N of SARS-CoV Urbani (Rabbit serum looped peptides): unit not given here

## NKFALTCTSTHFAFA
[1]
  Binding of serum 1a to linear peptides of protein X4 of SARS-CoV Urbani: 0.6
  Binding of serum 1a to looped/cyclic peptides of protein X4 of SARS-CoV Urbani: 0.9
  Binding of serum 1b to linear peptides of protein X4 of SARS-CoV Urbani: 0.5
  Binding of serum 1b to looped/cyclic peptides of protein X4 of SARS-CoV Urbani: 0.4
  Binding of serum 2 to linear peptides of protein X4 of SARS-CoV Urbani: 0.4
  Binding of serum 2 to looped/cyclic peptides of protein X4 of SARS-CoV Urbani: 0.8
  Binding of serum 6 to linear peptides of protein X4 of SARS-CoV Urbani: 0.3
  Binding of serum 6 to looped/cyclic peptides of protein X4 of SARS-CoV Urbani: 0.6
  Binding of serum 37 to linear peptides of protein X4 of SARS-CoV Urbani: 0.7
  Binding of serum 37 to looped/cyclic peptides of protein X4 of SARS-CoV Urbani: 0.7
  Binding of serum 62 to linear peptides of protein X4 of SARS-CoV Urbani: 0.7
  Binding of serum 62 to looped/cyclic peptides of protein X4 of SARS-CoV Urbani: 0.9
  Binding of serum London to linear peptides of protein X4 of SARS-CoV Urbani: 0.7
  Binding of serum London to looped/cyclic peptides of protein X4 of SARS-CoV Urbani: 0.3
  Binding of serum SARS-green to linear peptides of protein X4 of SARS-CoV Urbani: 0.4
  Binding of serum SARS-green to looped/cyclic peptides of protein X4 of SARS-CoV Urbani: 0.8
  Binding of serum SARS-yellow to linear peptides of protein X4 of SARS-CoV Urbani: 0.5
  Binding of serum SARS-yellow to looped/cyclic peptides of protein X4 of SARS-CoV Urbani: 0.7
[2]
  Binding of Control Serum Blood-Bank to Looped peptides: 0.9
  Binding of Control serum Blood-bank to linear peptides: 0.6
  Binding of Control serum LUMC to linear peptides: 0.5
  Binding of Control serum LUMC to looped peptides: 0.8
[3]
  Rabbit serum linear peptides: 0.5
  Rabbit serum looped peptides: 0.5

## NKRWQLALYKGFQFI
[1]
  Binding of serum 1a to linear peptides of protein X1 of SARS-CoV Urbani: 0.7
  Binding of serum 1a to looped/cyclic peptide (PEPSCAN-ELISA): 0.6
  Binding of serum 1b to linear peptides of protein X1 of SARS-CoV Urbani: 0.5
  Binding of serum 1b to looped/cyclic peptide (PEPSCAN-ELISA): 0.4
  Binding of serum 2 to linear peptides of protein X1 of SARS-CoV Urbani: 0.7
  Binding of serum 2 to looped/cyclic peptide (PEPSCAN-ELISA): 0.5
  Binding of serum 6 to linear peptides of protein X1 of SARS-CoV Urbani: 0.8
  Binding of serum 6 to looped/cyclic peptide (PEPSCAN-ELISA): 0.5
  Binding of serum 37 to linear peptides of protein X1 of SARS-CoV Urbani: 0.6
  Binding of serum 37 to looped/cyclic peptide (PEPSCAN-ELISA): 0.6
  Binding of serum 62 to linear peptides of protein X1 of SARS-CoV Urbani: 0.6
  Binding of serum 62 to looped/cyclic peptide (PEPSCAN-ELISA): 0.7
  Binding of serum London to linear peptides of protein X1 of SARS-CoV Urbani: 0.3
  Binding of serum London to looped/cyclic peptide (PEPSCAN-ELISA): 0.4
  Binding of serum SARS-green to linear peptides of protein X1 of SARS-CoV Urbani: 0.3
  Binding of serum SARS-green to looped/cyclic peptide (PEPSCAN-ELISA): 0.2
  Binding of serum SARS-yellow to linear peptides of protein X1 of SARS-CoV Urbani: 0.3
  Binding of serum SARS-yellow to looped/cyclic peptide (PEPSCAN-ELISA): 0.5
[2]
  Binding of Control Serum Blood-Bank to Looped peptides: 0.7
  Binding of Control serum Blood-bank to linear peptides: 0.6
  Binding of Control serum LUMC to linear peptides: 0.6
  Binding of Control serum LUMC to looped peptides: 0.7
[3]
  Recognition of the peptide by the rabbit serum: recognized

## NLDVIISSIVRQLFK
[1]
  Binding of serum 1a to linear peptides of protein X3 of SARS-CoV Urbani: 0.7
  Binding of serum 1a to looped/cyclic peptides of protein X3 of SARS-CoV Urbani: 0.5
  Binding of serum 1b to linear peptides of protein X3 of SARS-CoV Urbani: 0.2
  Binding of serum 1b to looped/cyclic peptides of protein X3 of SARS-CoV Urbani: 0.4
  Binding of serum 2 to linear peptides of protein X3 of SARS-CoV Urbani: 0.4
  Binding of serum 2 to looped/cyclic peptides of protein X3 of SARS-CoV Urbani: 0.5
  Binding of serum 6 to linear peptides of protein X3 of SARS-CoV Urbani: 0.6
  Binding of serum 6 to looped/cyclic peptides of protein X3 of SARS-CoV Urbani: 0.8
  Binding of serum 37 to linear peptides of protein X3 of SARS-CoV Urbani: 0.6
  Binding of serum 37 to looped/cyclic peptides of protein X3 of SARS-CoV Urbani: 0.5
  Binding of serum 62 to linear peptides of protein X3 of SARS-CoV Urbani: 0.6
  Binding of serum 62 to looped/cyclic peptides of protein X3 of SARS-CoV Urbani: 0.4
  Binding of serum London to linear peptides of protein X3 of SARS-CoV Urbani: 0.7
  Binding of serum London to looped/cyclic peptides of protein X3 of SARS-CoV Urbani: 1.8
  Binding of serum SARS-green to linear peptides of protein X3 of SARS-CoV Urbani: 0.3
  Binding of serum SARS-green to looped/cyclic peptides of protein X3 of SARS-CoV Urbani: 0.2
  Binding of serum SARS-yellow to linear peptides of protein X3 of SARS-CoV Urbani: 0.3
  Binding of serum SARS-yellow to looped/cyclic peptides of protein X3 of SARS-CoV Urbani: 0.6
[2]
  Binding of Control Serum Blood-Bank to Looped peptides of the protein X3 of SARS-CoV Urbani: 0.8
  Binding of Control serum Blood-bank to linear peptides of the protein X3 of SARS-CoV Urbani: 0.8
  Binding of Control serum LUMC to linear peptides of the protein X3 of SARS-CoV Urbani: 0.6
  Binding of Control serum LUMC to looped peptides of the protein X3 of SARS-CoV Urbani: 0.8
[3]
  Rabbit serum linear peptides: 0.3
  Rabbit serum looped peptides: 0.2

## NPETNILLNVPLRGT
[1]
  Binding of serum 1a to linear peptides of protein M of SARS-CoV Urbani: 0.8
  Binding of serum 1a to looped/cyclic peptides of protein M of SARS-CoV Urbani: 0.8
  Binding of serum 1b to linear peptides of protein M of SARS-CoV Urbani: 0.6
  Binding of serum 1b to looped/cyclic peptides of protein M of SARS-CoV Urbani: 0.7
  Binding of serum 2 to linear peptides of protein M of SARS-CoV Urbani: 0.8
  Binding of serum 2 to looped/cyclic peptides of protein M of SARS-CoV Urbani: 0.9
  Binding of serum 6 to linear peptides of protein M of SARS-CoV Urbani: 0.3
  Binding of serum 6 to looped/cyclic peptides of protein M of SARS-CoV Urbani: 0.7
  Binding of serum 37 to linear peptides of protein M of SARS-CoV Urbani: 0.9
  Binding of serum 37 to looped/cyclic peptides of protein M of SARS-CoV Urbani: 0.7
  Binding of serum 62 to linear peptides of protein M of SARS-CoV Urbani: 0.9
  Binding of serum 62 to looped/cyclic peptides of protein M of SARS-CoV Urbani: 0.7
  Binding of serum London to linear peptides of protein M of SARS-CoV Urbani: 0.3
  Binding of serum London to looped/cyclic peptides of protein M of SARS-CoV Urbani: 0.3
  Binding of serum SARS-green to linear peptides of protein M of SARS-CoV Urbani: 0.3
  Binding of serum SARS-green to looped/cyclic peptides of protein M of SARS-CoV Urbani: 0.4
  Binding of serum SARS-yellow to linear peptides of protein M of SARS-CoV Urbani: 0.1
  Binding of serum SARS-yellow to looped/cyclic peptides of protein M of SARS-CoV Urbani: 0.7
[2]
  Binding of Control Serum Blood-Bank to Looped peptides of the protein M of SARS-CoV Urbani: 0.8
  Binding of Control serum Blood-bank to linear peptides of the protein M of SARS-CoV Urbani: 0.7
  Binding of Control serum LUMC to linear peptides of the protein M of SARS-CoV Urbani: 0.4
  Binding of Control serum LUMC to looped peptides of the protein M of SARS-CoV Urbani: 0.9
[3]
  Rabbit serum linear peptides: 0.4
  Rabbit serum looped peptides: 0.2

## NPLLYDANYFVCWHT
[1]
  Binding of serum 1a to linear peptides of protein X1 of SARS-CoV Urbani: 0.9
  Binding of serum 1a to looped/cyclic peptide (PEPSCAN-ELISA): 0.5
  Binding of serum 1b to linear peptides of protein X1 of SARS-CoV Urbani: 0.6
  Binding of serum 1b to looped/cyclic peptide (PEPSCAN-ELISA): 0.4
  Binding of serum 2 to linear peptides of protein X1 of SARS-CoV Urbani: 0.6
  Binding of serum 2 to looped/cyclic peptide (PEPSCAN-ELISA): 0.4
  Binding of serum 6 to linear peptides of protein X1 of SARS-CoV Urbani: 0.5
  Binding of serum 6 to looped/cyclic peptide (PEPSCAN-ELISA): 0.3
  Binding of serum 37 to linear peptides of protein X1 of SARS-CoV Urbani: 0.8
  Binding of serum 37 to looped/cyclic peptide (PEPSCAN-ELISA): 0.5
  Binding of serum 62 to linear peptides of protein X1 of SARS-CoV Urbani: 0.7
  Binding of serum 62 to looped/cyclic peptide (PEPSCAN-ELISA): 0.6
  Binding of serum London to linear peptides of protein X1 of SARS-CoV Urbani: 0.3
  Binding of serum London to looped/cyclic peptide (PEPSCAN-ELISA): 0.2
  Binding of serum SARS-green to linear peptides of protein X1 of SARS-CoV Urbani: 0.4
  Binding of serum SARS-green to looped/cyclic peptide (PEPSCAN-ELISA): 0.3
  Binding of serum SARS-yellow to linear peptides of protein X1 of SARS-CoV Urbani: 0.4
  Binding of serum SARS-yellow to looped/cyclic peptide (PEPSCAN-ELISA): 0.4
[2]
  Binding of Control Serum Blood-Bank to Looped peptides: 0.7
  Binding of Control serum Blood-bank to linear peptides: 0.6
  Binding of Control serum LUMC to linear peptides: 0.6
  Binding of Control serum LUMC to looped peptides: 0.6
[3]
  Binding of a rabbit serum to linear peptides: 0.2
  Binding of a rabbit serum to looped peptides: 0.6
